{
  "source": "patent US7941211B2",
  "about": "“Preloading with macular pigment to improve photodynamic treatment of retinal vascular disorders” (ZeaVision, LLC., priority 2003, dated 2011)",
  "key": {"inflammatory cytokines": {"tested_on": "inflammatory cytokines", "conditions": "cited from earlier work"}, "retina": {"tested_on": "retina", "conditions": "in vivo, po; cited from earlier work"}, "[1]": {"biological_target": "Pi isoform of glutathione-S-transferase (GSTP1) (Homo sapiens, UniProt P09211)", "sequence (P09211 whole entry, canonical isoform)": "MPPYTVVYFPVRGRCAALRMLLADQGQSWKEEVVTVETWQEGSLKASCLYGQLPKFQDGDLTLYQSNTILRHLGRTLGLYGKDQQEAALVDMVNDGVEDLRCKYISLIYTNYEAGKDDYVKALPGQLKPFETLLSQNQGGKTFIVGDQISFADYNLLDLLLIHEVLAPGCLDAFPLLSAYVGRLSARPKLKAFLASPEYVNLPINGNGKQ", "conditions": "in vitro conditions; cited from earlier work"}, "[2]": {"tested_on": "wet macular degeneration (subfoveal CNV)", "experiment": "Case report: zeaxanthin pre-loading before verteporfin-laser PDT (Example 1)", "type": "in vivo, human", "source_text": "Such a candidate became known to the Applicant, in mid to late 2003. Because of certain personal and business connections, they were contacted by a person, who had been told that (i) […] eyesight was deteriorating rapidly, due to macular degeneration, and (ii) they should take care of any business, financial, legal, and other matters as soon as possible, before […] eyesight became even worse. This person made their plight (and their severe depression, due to the very negative prognosis they had received from an expert) known to the Applicant. In response, the Applicant informed the patient that they (the Applicant) had made a number of charitable donations to support research at the Johns Hopkins School of Medicine, where some of the world's foremost experts in macular degeneration work. […] (the Applicant) offered to see whether they could obtain expedited treatment for the patient, by making some phone calls to people they knew who worked there. The patient accepted that offer, and was seen and treated not long thereafter, by a top expert at the Wilmer Eye Institute, a highly respected eye care and research institute affiliated with Johns Hopkins.\nThis patient had been taking zeaxanthin for a number of weeks, prior to being examined and treated at the Wilmer Eye Institute. Their dosage was believed to be 20 milligrams per day, from taking two 10 milligram capsules (purchased from ZeaVision LLC) per day, usually with meals. They also took various other vitamin supplements during the course of their treatment, and afterwards.\nAn adult at the time, was suffering from wet macular degeneration.\nAt about that time, the patient began taking zeaxanthin supplements. It is believed that their typical daily dosage was 20 milligrams, from two 10 milligram capsules per day, usually taken with meals. The patient is also believed to have taken various other nutritional supplements during the relevant span of time, although their full contents, dosages, and durations are not known.\nAccording to notes created by the ophthalmologist at the Wilmer Institute, obtained by the Applicant with approval from the patient, the patient suffered from subfoveal CNV in their right eye. […] According to the patient, the ophthalmologist advised them that their course of treatment likely would require 5 or 6 verteporfin-laser treatments, over a span of up to about 2 years.\nHis left eye was similar in appearance but questionable in extent, and there was no proven disease progression. Therefore, the ophthalmologist recommended careful monitoring but no PDT at that time.\nDespite that advice, the patient continued taking zeaxanthin."}, "[3]": {"conditions": "even at very high dosages; cited from earlier work"}, "wet macular degeneration": {"tested_on": "wet macular degeneration", "experiment": "ZeaVision customer survey: zeaxanthin supplements and PDT treatment (Example 2)", "type": "in vivo, human", "source_text": "In the summer of 2004, the assignee company (ZeaVision LLC) began searching for customers who were: (i) taking zeaxanthin supplements they had purchased from ZeaVision, and (ii) had received one or more PDT treatments, for wet macular degeneration. They did this by sending postcards to customers, asking them to contact ZeaVision if they had received PDT treatment. Those customers who responded were briefly interviewed by phone by the customer support staff, who asked questions and filled in a worksheet that had been prepared to help guide the interviews. Most of these patients with age-related eye problems are in their 70's or 80's. They could not always provide exact dates when talking from memory during a phone call, and no efforts were made to check their actual medical records, or to consult with the ophthalmologists who performed their PDT treatments. In addition, nearly all of these patients were taking one or more additional vitamin supplements, such as lutein, Coenzyme Q10, and/or the AREDS formulation (all of which are commonly recommended by friends, relatives, and physicians), and at least one patient (identified as patient one, below) also received a steroid injection as part of their PDT therapy. […] Responses from patients who had been taking zeaxanthin for at least a month prior to a PDT treatment include the following examples: […]"}, "poultry": {"tested_on": "poultry", "conditions": "compared against preparation of dietary 3R,3′R stereoisomer; test in Spain; cited from earlier work"}, "[4]": {"tested_on": "inflammatory chorioretinal diseases", "conditions": "in vivo; cited from earlier work"}, "[5]": {"tested_on": "vascular endothelial growth factor (VEGF)", "conditions": "verteporfin-laser treatment; cited from earlier work"}, "[6]": {"conditions": "right eye, January 2004, six months after PDT"}, "[7]": {"conditions": "right eye, October 2003, three months after PDT, zeaxanthin 20 mg/day"}, "[8]": {"conditions": "Patient one, ZX from June 2004, first and only PDT about 2 months later, also steroid injection"}},
  "note": "“Also recorded” adds a separate entry of the source.",
  "data": [
    {"molecule": "CC1=C(/C=C/C(C)=C/C=C/C(C)=C/C=C/C=C(C)/C=C/C=C(C)/C=C/C2=C(C)C(=O)[C@@H](O)CC2(C)C)C(C)(C)C[C@H](O)C1=O", "note": "[astaxanthin]", "values": [
      {"measurement": "effect on inflammatory and similar responses", "setting": "inflammatory cytokines", "result": "can help reduce inflammatory and similar responses"}
    ]},
    {"molecule": "CC1=C(/C=C/C(C)=C/C=C/C(C)=C/C=C/C=C(C)/C=C/C=C(C)/C=C/C2=C(C)C(=O)CCC2(C)C)C(C)(C)CCC1=O", "note": "[canthaxanthin]", "values": [
      {"measurement": "retinal deposition", "setting": "retina", "result": "abnormal retinal deposition"}
    ]},
    {"molecule": "CC1=C[C@H](O)CC(C)(C)[C@H]1/C=C/C(C)=C/C=C/C(C)=C/C=C/C=C(C)/C=C/C=C(C)/C=C/C1=C(C)C[C@@H](O)CC1(C)C", "note": "[lutein, reference compound]", "values": [
      {"measurement": "binding affinity of macular enzymes", "setting": "[1]", "result": "will not bind to lutein with any significant affinity"}
    ]},
    {"molecule": "CC1=C(/C=C/C(C)=C/C=C/C(C)=C/C=C/C=C(C)/C=C/C=C(C)/C=C/C2=C(C)C[C@@H](O)CC2(C)C)C(C)(C)C[C@H](O)C1", "note": "[zeaxanthin]", "values": [
      {"measurement": "findings in the eye not previously treated with PDT", "setting": "[2]; left eye, March 2004, patient taking zeaxanthin, no PDT so far", "result": "growth of choroidal neovascularization compared to January 2004"},
      {"measurement": "ophthalmologist's assessment of PDT results, as orally reported by the patient", "setting": "[2]; left eye, three months after PDT of March 2004", "result": "results were good"},
      {"measurement": "biomicroscopic findings (subretinal hemorrhage)", "setting": "[2]; [6]", "result": "clearing of the subretinal hemorrhage that was noted along the inferonasal aspect of the treated area"},
      {"measurement": "fluorescein angiography", "setting": "[2]; [6]", "result": "still showed some increased staining in the area where the hemorrhage had cleared"},
      {"measurement": "leakage from CNV", "setting": "[2]; right eye, March 2004", "result": "no new leakage from CNV to suggest the need for any treatment"},
      {"measurement": "biomicroscopic findings (subretinal hemorrhage and fluid)", "setting": "[2]; [7]", "result": "clearing of much of the subretinal hemorrhage along the nasal aspect of the posterior pole with no new subretinal fluid"},
      {"measurement": "fluorescein angiography", "setting": "[2]; [7]", "result": "no fluorescein leakage to suggest the need for any additional treatment at this time except at the inferonasal aspect of the treated area"},
      {"measurement": "ophthalmologist's assessment of the PDT results", "setting": "[2]; right eye, three months after first PDT, zeaxanthin 20 mg/day", "result": "much better than expected; also recorded: far better than expected"},
      {"measurement": "pathological changes in animal tests", "setting": "[3]", "result": "did not cause any pathological changes, of any sort"},
      {"measurement": "need for further PDT sessions (doctor's statement)", "setting": "wet macular degeneration; Patient four, ZX begun before second PDT session, first session without ZX did not stabilize", "result": "appeared to not need any more PDT sessions"},
      {"measurement": "need for further PDT treatments (doctor's statement)", "setting": "wet macular degeneration; [8]", "result": "may not need to have any more treatments"},
      {"measurement": "results of PDT treatment", "setting": "wet macular degeneration; [8]", "result": "results were good"},
      {"measurement": "ophthalmologist's assessment of eyes at followup", "setting": "wet macular degeneration; Patient three, October 2004", "result": "their eyes had stabilized"},
      {"measurement": "doctor's assessment of eyes at followup", "setting": "wet macular degeneration; Patient three, ZX for some months before second PDT in May 2004, late June 2004", "result": "their eyes had gotten better, and appeared to be stable"},
      {"measurement": "vision in PDT-treated left eye", "setting": "wet macular degeneration; Patient two, 10 mg/day ZX from May 2004, four PDT sessions April-October 2004, October 2004", "result": "20/30"},
      {"measurement": "patient's description of their results", "setting": "wet macular degeneration; Patient two, 10 mg/day ZX, October 2004", "result": "super-good"},
      {"measurement": "ophthalmologist's assessment of sight", "setting": "wet macular degeneration; Patient two, 10 mg/day ZX, PDT on left eye", "result": "sight restored and improved"},
      {"measurement": "adverse side effects", "setting": "wet macular degeneration; all patients surveyed", "result": "did not cause any adverse side effects of any sort"},
      {"measurement": "interference with efficacy of PDT treatment", "setting": "wet macular degeneration; all patients surveyed", "result": "did not interfere with the efficacy of PDT treatment"},
      {"measurement": "overall benefit", "setting": "wet macular degeneration; in at least some patients", "result": "provided at least some benefits"},
      {"measurement": "condition of PDT-treated eye (doctor's statement)", "setting": "wet macular degeneration; parent of respondent OD, PDT on right eye after three months of ZX", "result": "appeared to be stable"},
      {"measurement": "condition of fellow eye with dry macular degeneration (respondents' statements)", "setting": "wet macular degeneration; several respondents with PDT in one eye only", "result": "remain stable, or in some cases improve"},
      {"measurement": "binding affinity of macular enzymes", "setting": "[1]", "result": "relatively high affinity"}
    ]},
    {"molecule": "meso-zeaxanthin", "values": [
      {"measurement": "performance as colour additive for poultry", "setting": "poultry", "result": "did not perform satisfactorily"}
    ]},
    {"molecule": "verteporfin", "values": [
      {"measurement": "performance relative to verteporfin treatment of wet macular degeneration", "setting": "[4]", "result": "tended to perform better, and more effectively"},
      {"measurement": "release of hormones that increase blood vessel growth (VEGF)", "setting": "[5]", "result": "stimulates, rather than suppresses"}
    ]}
  ]
}
